The values below come from article PMC7737769, “Pharmacological inhibition of syntenin PDZ2 domain impairs breast cancer cell activities and exosome loading with syndecan and EpCAM cargo” (Journal of Extracellular Vesicles, 2020).

Data set [1] deals with T1, syntenin‐PDZ tandem (without C‐terminal domain) (Homo sapiens, UniProt O00560).
T1 construct: made in house; host or cells: Biotin XCell F' E. coli cells
T1 sequence (O00560 107-275): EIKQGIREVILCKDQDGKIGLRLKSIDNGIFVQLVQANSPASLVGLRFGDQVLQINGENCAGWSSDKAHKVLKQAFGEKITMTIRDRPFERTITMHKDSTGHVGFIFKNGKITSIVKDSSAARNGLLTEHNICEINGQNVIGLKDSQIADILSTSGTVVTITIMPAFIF
Put plainly: Surface plasmon resonance (BIAcore), syntenin PDZ tandem. Format: binding. The note with it: compound in PBS, read-out: apparent KD, syntenin‐PDZ tandem (without C‐terminal domain). Here is the method:
All SPR experiments were conducted with a BIAcore T200 instrument (GE Healthcare), at 25°C. A total of 8000 resonance units (RU) of biotinylated ligands (N‐terminal 6xHis tagged biotinylated syntenin tandem, syntenin tandem with C terminus, GRASP55 tandem or GST as control) were immobilized on a streptavidin‐sensor chip (GE Healthcare). Analytes (C58 and SyntOFF compounds) were perfused at 30 µl per min in running buffer (10 mM HEPES pH 7.4, 150 mM NaCl, 0.005% Tween20) at different concentrations. The reference channel was N‐terminal 6xHis tagged biotinylated GST protein. The injection time was 240 s, long enough for the sensorgrams to reach equilibrium, and the dissociation time was 240 s. To carry out these SPR experiments, we employed the method known as ‘single‐cycle kinetics’ described in 2006 by Karlsson and co‐workers (Karlsson, Katsamba, Nordin, Pol, & Myszka, 2006). It consists in injecting the analyte at increasing concentrations, without regeneration steps between each sample injection to avoid that folded‐proteins can be damaged after regeneration steps. Equilibrium dissociation constants (KD) were calculated by fitting the data to a simple Langmuir binding isotherm using GraphPad Prism. For determination of the apparent KD, signals obtained at equilibrium were plotted as a function of compound concentration. […]
For orientation: SPR reads the build-up and loss of mass on a sensor chip optically.

The next data set has as its system MCF‐7 SyntKO cells. In words: Wound-healing (migration) assay, MCF-7 SyntKO. It is filed as cell-based. The settings on record: 100 µM, 24 h. Here is the method:
For migration assays, cells were treated with 1 ng/ml of mitomycin (Sigma M4287) overnight to inhibit cell division. Treated cells were plated in Ibidi culture‐inserts (Ibidi Cat‐80206) for 12 h to reach 90%–95% of confluence with or without compounds (100 µM). A wound was created by removing inserts from the dishes. Medium with or without compounds (100 µM) was refreshed to remove dead cells and the cells were observed under an inverted light microscope (Leica SP2) equipped with a camera. Images were taken by MetaMorph software every 10 min for 24 h. Measurements of cell velocity were calculated using the MetaMorph software.

The test system of data set [2] is T2, syntenin‐Frizzled7 complex (GST-SyntFL / FZD7 peptide).
T2 construct: residues 1–298 or syntenin full‐length (FL) for HTRF assays; made in house; host or cells: E. coli ER2566
Put plainly: HTRF assay, syntenin-Frizzled 7 interaction. It is filed as biochemical, human. As for the experimental part:
(§1) HTRF assays were performed in white 96Well Small VolumeHiBase Polystyrene Microplates (Greiner) with a total working volume of […], as described previously (Milhas et al., 2016). Briefly, compounds were firstly dispensed into the wells at 400 µM for the primary screen or with serial DMSO dilutions for IC50 measurement assays. Primary screening assays have been performed in monoplicate while IC50 measurements were performed in triplicates. All HTRF reagents were purchased from CisBio Bioassays and reconstituted according to the supplier protocols. The plates were spun for 3 min at 500 × g and then incubated at 4°C for 16 h. The HTRF signals were recorded on a POLAR star Omega plate reader (BMG Labtech) with an excitation filter at 337 nm and fluorescence wavelength measurement at 620 and 665 nm, an integration delay of 60 µs and an integration time of 400 µs. Results were analysed with a two‐wavelength signal ratio: [intensity (665 nm)/intensity (620 nm)] × 10^4. Percentage of inhibition was calculated using the following equation: % inhibition = [(compound signal)–(min signal)]/[(max signal)–(min signal)] × 100, where ‘max signal’ is the signal ratio with the compound vehicle alone (DMSO) and ‘min signal’ the signal ratio without protein B. For IC50 measurements, values were normalized and fitted with Prism (GraphPad software) using the following equation: Y = 100/(1+((X/ IC50)ˆHill slope)).
(§2) The search strategy for PDZ2 syntenin inhibitors was based on the PDZ targeted library developed from Enamine compound collection. The PDZ targeted library was developed to cover virtually all PDZ domains. Consequently, to create the syntenin PDZ2 focused library we used two independent paths: docking of the PDZ targeted library against structures of syntenin PDZ2 available in Protein Data Bank and a random selection from the PDZ targeted library. The docking has produced 21 virtual hits, which were added to 118 randomly selected compounds (10% of the pan PDZ library). The resultant set of 139 compounds, syntenin PDZ library was subjected to experimental validation. The primary screen was performed at 400µM using a previously validated Homogeneous Time Resolved Fluorescence (HTRF) assay (Milhas et al., 2016). HTRF is based on Fluorescence Resonance Energy Transfer (FRET) between two fluorescent reagents. In the present case, Anti‐GST‐Terbium antibody and streptavidin‐bound Dynamic2 were used as donor and acceptor respectively. Interactions between GST PDZ‐fusion proteins and biotinylated peptides containing PDZ binding motifs were challenged with the potential inhibitors. In parallel, control experiments were performed with a biotinylated‐GST to verify that compounds were not interfering with the FRET signal in a non‐specific manner. To identify inhibitors of syntenin PDZ interactions, we tested for the effect of the 139 compounds on syntenin‐SDC2 and syntenin‐Frizzled7 complexes (Figure 1a; Table S1). When the HTRF signal dropped below 0.9, inhibition was considered as effective. […] Noteworthy, these compounds had no effect on other PDZ complexes like GRASP55‐JAM‐B or GRASP55‐JAM‐C and Erbin‐Erbb2 or Erbin‐P0071 (Figure 1c).
On the technique in general: TR-FRET usually uses a lanthanide donor and a delayed reading to cut background.

A further data set relates to T3, GRASP55‐JAM‐C complex.
T3 construct: Human GRASP55 tandem PDZ; made in house; host or cells: E. coli BL21 (DE3)
Put plainly: HTRF assay, GRASP55-JAM-C interaction. Format: biochemical, human. The settings on record: 400µM compound; Figure 1c. Here is the method:
as §1, §2

The test system of another data set is T4, Erbin‐Erbb2 complex.
T4 construct: human Erbin PDZ domain; made in house; host or cells: E. coli BL21 (DE3)
Put plainly: HTRF assay, Erbin-ERBB2 interaction. Format: biochemical, human. The note with it: 400µM compound; Figure 1c. Here is the method: as §1, §2

Data set [3] is described as follows: Chemical solubility and stability in PBS. It is filed as physicochemical. The note with it: aqueous buffer; PBS pH 7.4 22°C.

Take `CC(C)[C@H](NC(=O)CSc1ccc(Cl)cc1)C(=O)O` [Compound C58]: the Kd in data set [1] worked out at 1.03 mM. Further, in the data set on MCF‐7 SyntKO cells, the “cell migration (wound closure)” value is “no such effect”. Besides, the “GST SyntFL Frizzled 7 (signal ratio)” value in data set [2] (400µM compound, Figure 1c) is 0.38. In addition, the “HTRF ASSAY GST-SyntFL FZD7 (HTRF signal ratio)” value in data set [2] (primary screen, 400 µM compound, signal below 0.9 considered effective inhibition, Table S1) is 0.39. Further, the “GST-GRASP JAM-C (signal ratio)” value in the data set on GRASP55‐JAM‐C complex stood at 1. Further, the “GST-Erbin ERBB2 (signal ratio)” value in the data set on Erbin‐Erbb2 complex amounted to 1.01.
With `CC(C)[C@H](NC(=O)CCSc1ccc(Cl)cc1)C(=O)O` [SyntOFF, (S)‐2‐(3‐(4‐chlorophenylthio)propanamido)‐3‐methylbutanoic acid], the solubility in data set [3] was above 2300 µg/mL.

The solubility is the dissolved amount per volume that the medium holds. High values mean much dissolved substance, low ones little dissolved substance.
